The conditions of data set [1]: treatment of second stage infection (CNS infection); estimated; cited from earlier work.
For data set [2], the system named is Trypanosoma brucei brucei strain 427–221. Briefly: Trypanosome screening assay (CellTiter-Glo ATP bioluminescence, 48 h). Conditions: Trypanosoma brucei, read-out: T.b.b IC50. Format: cell-based. The protocol: Trypanosoma brucei brucei strain 427–221 were grown at 37°C, 5% CO2 in HMI-9 medium containing 10% Fetal Bovine Serum, 10% Serum Plus (JRH Inc., Lenexa, KS,USA) and penicillin/streptomycin.
T.b.b. 427–221 were diluted to 2.10^4 per ml in complete HMI-9 medium and aliquoted in Greiner sterile 384-well flat white opaque culture plates using a WellMate cell dispenser from Matrix Tech. (Hudson, NH, USA). Test compounds were serially diluted in dimethyl sulfoxide (DMSO) and added to the assay plates with the robotic dispenser Biomek FXp liquid handler (Beckman Coulter). Thimerosal (2 µM final concentration) was added as a positive control and DMSO as a negative control (1% final concentration). Trypanosomes were incubated with compounds for 48 hours at 37°C with 5% CO2 before monitoring cell viability as previously described. Briefly, trypanosomes were lysed in the wells by adding 25 µL of CellTiter-GloTM (Promega). The lysed trypanosomes were placed on an orbital shaker at room temperature for 2 minutes. After lysis, the resulting ATP-bioluminescence was measured at room temperature using an Analyst HT plate reader (Molecular Devices). Percentage inhibition of parasite growth was calculated for each well as [1−(RLUx−RLU+)/(RLU−−RLU+)]*100 where RLUx, RLU+ and RLU− are respectively the Relative Light Units for each well, positive (thimerosal) and negative (DMSO) controls. A screening window coefficient, denoted Z′ factor, was used to evaluate the performance of the assay. The Z′ factor, calculated as 1−(3σc++3σc−)/(μc+−μc−) where σc+, σc−, μc+ and μc− are respectively the standard deviation and mean values of positive and negative controls, is reflective of the assay signal dynamic range and the data variation associated with signal measurement. IC50's were calculated using Prism (GraphPad).
For orientation: ATP-based viability assays read luminescence as a measure of living cells.

The next data set deals with T.b.b 427–221. The data set can be described thus: Live trypanosome fluorescence imaging. Format: cell-based, Trypanosoma brucei brucei. As to conditions: 20 µM, 2 hours, washed, 1 hour compound-free medium. The protocol: To explore the intracellular of distribution the coumarin-labeled derivative 30, parasites were incubated with 20 µM of 30 for 2 hours, washed once, and incubated in compound-free medium for 1 hour prior to microscopy. […] Although visualization of labeled merulin A in live cell imaging is an encouraging observation, further experiments are required to determine the precise localization and potential function of these compounds against T. brucei.
T.b.b 427–221 diluted to […] in complete HMI-9 medium were incubated with either 20 µM of compound 30, 20 µM of the free coumarin dye or 30 µM of compound 17 at 37°C for 2 hours. The parasites were then washed once with complete HMI-9 medium and incubated in compound-free complete HMI-9 medium for 1 additional hour. Parasites were directly mounted under coverslips and viewed with 100×-oil immersion on a Zeiss Laser Confocal microscope LSM 510 Meta.

The next data set concerns HeLa cells. Briefly: HeLa toxicity screening assay (nuclei count by imaging, 17 h). Format: cell-based, human. Conditions: for IC50: Homo sapiens, HeLa. The protocol:
(§1) HeLa cells were plated at a density of 2,000 cells per well into two 384 well clear bottom plates (Costar 3712) in DMEM with 10% FBS. After 24 hours incubation at 37°C with 5% CO2 the cells were pinned with 200 nL of a two-fold serial dilution of merulin analogues. After 17 hours of treatment at 37°C in 5% CO2 the plates were fixed with 4% formaldehyde and washed with PBS (BioTek ELx405). After 10 minutes in PBS with 0.5% TritonX-100 each plate was washed and blocked with 2% Bovine Serum Albumin in PBS. Nuclei were stained with Hoechst 33342 then washed and placed in 40 µL of PBS with 0.1% sodium azide. Plates were imaged using the ImageXpress Micro epifluorescent scope (Molecular Devices). MetaXpress software was used to quantify total number of cells and IC50s were calculated using Prism (GraphPad).

The test system of the next data set is T98-G cells. Briefly: Glioblastoma toxicity screening assay (nuclei count by imaging, 17 h). Format: cell-based. Conditions: Homo sapiens, T98G; Figure 4. The protocol: as §1, with “T98-G cells (ATTC” for “HeLa cells were”, “T98-G cells (ATTC number: CRL-1690) were plated” for “HeLa cells were plated”

Where two headings read alike, the source gives them in different places.

What is called IC50 is the concentration that gives 50% inhibition.

For the compound `Nc1nc(N)nc(Nc2ccc([As]3SCC(CO)S3)cc2)n1` (stereo not drawn) [Melarsoprol, reference compound], the “mortality rate due to drug-associated toxicity” value in data set [1] was “three to ten”. For the same compound, the IC50 in data set [2] is 0.002 µM.
`CC1(C)CCC(=O)[C@@]2(C)OO[C@@H]3C[C@@]12CC[C@H]3O` [compound 1, merulin A]: the “fluorescence detected in live parasites” value in the data set with T.b.b 427–221 is “No fluorescence was detected”. For the same compound, the IC50 is over 50 µM with HeLa cells (Figure 4), 4 µM in data set [2] (Table 3) and over 50 µM with T98-G cells.
As to `CC1(C)CCC(=O)[C@@]2(C)OO[C@H]3C[C@@]12CC[C@H]3OC(=O)c1ccncc1` [compound 25, (3S,4R,6aS,10aS)-7,7,10a-trimethyl-10-oxooctahydro-3H-3,6a-methanobenzo[c][1,2]dioxocin-4-yl isonicotinate], the IC50 was over 50 µM in the data set with HeLa cells (Figure 4); 0.95 µM in data set [2] (Figure 4, bloodstream form); over 50 µM in the data set on T98-G cells.
Turning to `CC1(C)CCC(=O)[C@@]2(C)OO[C@H]3C[C@@]12CC[C@H]3OC(=O)c1ccc(N2CCCCC2)nc1` [compound 26, (3S,4R,6aS,10aS)-7,7,10a-trimethyl-10-oxooctahydro-3H-3,6a-methanobenzo[c][1,2]dioxocin-4-yl 6-(piperidin-1-yl)nicotinate], the IC50 in the data set with HeLa cells (Figure 4) came out at 24 µM; in data set [2] (Figure 4, bloodstream form), 0.21 µM; with T98-G cells, 15 µM.
The matching figures for `CC(C)(C)OC(=O)N1CCC(CC(=O)O[C@@H]2CC[C@@]34C[C@@H]2OO[C@]3(C)C(=O)CCC4(C)C)CC1` [compound 27, tert-butyl-4-(2-oxo-2-(((3S,4R,6aS,10aS)-7,7,10a-trimethyl-10-oxooctahydro-3H-3,6a-methanobenzo[c][1,2]dioxocin-4-yl)oxy)ethyl)piperidine-1-carboxylate]: 33 µM, 0.16 µM and over 50 µM.
With `CC1(C)CCC(=O)[C@@]2(C)OO[C@H]3C[C@@]12CC[C@H]3OC(=O)CC1CCNCC1` [compound 28, (3S,4R,6aS,10aS)-7,7,10a-trimethyl-10-oxooctahydro-3H-3,6a-methanobenzo[c][1,2]dioxocin-4-yl 2-(piperidin-4-yl)acetate], the IC50 in the data set with HeLa cells (Figure 4) was 21 µM; in data set [2] (Figure 4, bloodstream form), 0.16 µM; with T98-G cells it was over 50 µM.
The matching figures for `CC1(C)CCC(=O)[C@@]2(C)OO[C@H]3C[C@@]12CC[C@H]3OC(=O)CN` [compound 29, (3S,4R,6aS,10aS)-7,7,10a-trimethyl-10-oxooctahydro-3H-3,6a-methanobenzo[c][1,2]dioxocin-4-yl 2-aminoacetate]: over 50 µM, over 20 µM and over 50 µM.
Take `CN(C)c1ccc2c(CC(=O)O[C@@H]3CC[C@@]45C[C@@H]3OO[C@]4(C)C(=O)CCC5(C)C)cc(=O)oc2c1` [compound 30, (3S,4R,6aS,10aS)-7,7,10a-trimethyl-10-oxooctahydro-3H-3,6a-methanobenzo[c][1,2]dioxocin-4-yl 2-(7-(dimethylamino)-2-oxo-2H-chromen-4-yl)acetate]: the “fluorescence detected in live parasites” value in the data set with T.b.b 427–221 was “Diffuse cytoplasmic fluorescent signal”. The same compound had an SI with HeLa cells (HeLa vs T. brucei) of over 125. Further, the IC50 in the data set on HeLa cells was over 50 µM; in data set [2] (Table 3), 0.42 µM; in the data set with T98-G cells, over 50 µM.
Regarding `CN(C)c1ccc2c(CC(=O)NCCNC(=O)CCc3ccccc3)cc(=O)oc2c1` [compound 31, N-(2-(2-(7-(dimethylamino)-2-oxo-2H-chromen-4-yl)acetamido)ethyl)-3-phenylpropanamide], the “fluorescence detected in live parasites” value with T.b.b 427–221 is on record as “No fluorescence was detected”.

(Values after publication PMC3459870, “Hit-to-Lead Development of the Chamigrane Endoperoxide Merulin A for the Treatment of African Sleeping Sickness” (PLoS ONE, 2012).)
